The text below walks through data of patent US8895695B2, “Template-fixed beta-hairpin peptidomimetics with CXCR4 antagonizing activity” (priority 2003, dated 2014).

One data set concerns the target CXCR4 (Homo sapiens, UniProt P61073). Description: Ca2+-assay method 2 (Flexstation, SDF-1 induced calcium mobilization). Format: cell-based. Also on record: expressed in transfected cells; host or cells: mouse pre-B cell line 300-19. The conditions noted are these: method 2 (Ex. 54-160), mouse pre-B cell line 300-19 with human CXCR4, 10 nM SDF-1; read-out: IC50 (nM) Ca^2+ assay. On the technique in general: Calcium flux is commonly read through the fluorescence of an indicator in the cells.

In data set [1] the test system is human red blood cells (hRBC). Description: Hemolysis. Format: cell-based. Put shortly: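 Percent lysis taken as OD540 of peptide-treated sample over OD540 of the water/0.1% Triton X-100 full-lysis control, with PBS giving 0%. Peptides at 100 μM exposed to PBS-washed human RBCs (20% v/v) for 1 hour at 37° C. before centrifugation and 20-fold dilution of supernatant.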

The next data set in a line: in vitro. The following applies: human.

Structures are written as SMILES. Numbered stars: 1 amine (or outer) side, 2 acyl side, 3 side chain; on linkers, the order of the positions; unused ones are H or OH. Bridge positions count the residues as written; N and C are the ends. Square brackets hold non-standard residues; d marks the D form. Peptide text beside a SMILES is read from it. N(3-imidazol-1-ylpropyl)Gly = O=C(O)CNCCCn1ccnc1; X2 = CN1CCN(CCCN(CC(=O)[*:2])[*:1])CC1; 2Nal = N[C@@H](Cc1ccc2ccccc2c1)C(=O)O; Cit = NC(=O)NCCC[C@H](N)C(=O)O; Dab = NCC[C@H](N)C(=O)O
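Wherever GI50 is given: MTT reduction read as absorbance at 595 nm, blank-corrected and expressed as percent growth relative to the time-zero cell reading, triplicate wells per concentration.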

CXCR4, sequence (P61073 whole entry): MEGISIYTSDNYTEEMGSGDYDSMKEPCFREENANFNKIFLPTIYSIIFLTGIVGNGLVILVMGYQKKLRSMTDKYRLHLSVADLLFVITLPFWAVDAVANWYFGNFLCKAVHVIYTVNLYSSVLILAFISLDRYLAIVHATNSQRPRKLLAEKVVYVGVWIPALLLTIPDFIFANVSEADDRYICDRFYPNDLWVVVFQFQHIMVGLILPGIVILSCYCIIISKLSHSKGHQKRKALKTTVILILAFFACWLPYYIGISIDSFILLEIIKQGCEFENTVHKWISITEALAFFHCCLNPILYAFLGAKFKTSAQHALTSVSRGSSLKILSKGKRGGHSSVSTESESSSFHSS

As to `N=C(N)NCCC[C@@H]1NC(=O)[C@@H]2CSSC[C@H](NC(=O)[C@H](Cc3ccc4ccccc4c3)NC(=O)[C@H](CCCNC(=N)N)NC(=O)[C@H](CCCNC(=N)N)NC(=O)[C@H]3CCCN3C(=O)CNC1=O)C(=O)N[C@@H](Cc1ccc(O)cc1)C(=O)N[C@@H](CC(=O)O)C(=O)N[C@@H](CCCCN)C(=O)N1CCC[C@@H]1C(=O)N1CCC[C@H]1C(=O)N[C@@H](Cc1ccc(O)cc1)C(=O)N[C@@H](CCCNC(=N)N)C(=O)N[C@@H](CCCNC(N)=O)C(=O)N2` [Ex. 78] (cyclo(YR[Cit]CRG[dP]RR[2Nal]CYDK[dP]P); disulfide 4-11), at CXCR4, the concentration for half-maximal inhibition (IC50) (commonly the concentration that inhibits the measured activity by half) turned out to be 11 nM. Also, the Hemolysis at 100 μM in data set [1] worked out at 0.1%. Besides, in the data set “in vitro”, the GI50 – broadly, the concentration that inhibits growth by half – at 48 h stood at 69000 nM.
Regarding `C[C@@H](O)[C@@H]1NC(=O)[C@H](CCCNC(=N)N)NC(=O)[C@H](Cc2ccc(O)cc2)NC(=O)[C@@H]2CCCN2C(=O)[C@H]2CCCN2C(=O)[C@H](CCCCN)NC(=O)[C@H](CCC(N)=O)NC(=O)[C@H](Cc2ccc(O)cc2)NC(=O)[C@@H]2CSSC[C@H](NC1=O)C(=O)N[C@@H](CCCNC(=N)N)C(=O)NCC(=O)N1CCC[C@@H]1C(=O)N[C@@H](CCN)C(=O)N[C@@H](CCCNC(=N)N)C(=O)N[C@@H](Cc1ccc3ccccc3c1)C(=O)N2` [Ex. 104] (cyclo(YRTCRG[dP][Dab]R[2Nal]CYQK[dP]P); disulfide 4-11), the IC50 at CXCR4 came to 7.4 nM. Moreover, the Hemolysis at 100 μM in data set [1] is 0%. Further, halving of growth in the data set “in vitro” (GI50 at 48 h) required 71000 nM.
On the same counts, the results for `N=C(N)NCCC[C@@H]1NC(=O)[C@@H]2CSSC[C@H](NC(=O)[C@H](Cc3ccc4ccccc4c3)NC(=O)[C@H](CCCNC(=N)N)NC(=O)[C@H](CCCNC(=N)N)NC(=O)[C@H]3CCCN3C(=O)CNC1=O)C(=O)N[C@@H](Cc1ccc(O)cc1)C(=O)N[C@@H](CCCNC(N)=O)C(=O)N[C@@H](CCCCN)C(=O)N1CCC[C@@H]1C(=O)N1CCC[C@H]1C(=O)N[C@@H](Cc1ccc(O)cc1)C(=O)N[C@@H](CCCNC(=N)N)C(=O)N[C@@H](CCC(N)=O)C(=O)N2` [Ex. 130] (cyclo(YRQCRG[dP]RR[2Nal]CY[Cit]K[dP]P); disulfide 4-11) are 4.1 nM, 0% and 62000 nM.
On the same counts, the results for `N=C(N)NCCC[C@@H]1NC(=O)CN(CCCn2ccnc2)C(=O)[C@H]2CCCN2C(=O)CNC(=O)[C@H](CCCNC(=N)N)NC(=O)[C@@H]2CSSC[C@H](NC(=O)[C@H](Cc3ccc4ccccc4c3)NC1=O)C(=O)N[C@@H](Cc1ccc(O)cc1)C(=O)N[C@@H](CCCNC(N)=O)C(=O)N[C@@H](CCCCN)C(=O)N1CCC[C@@H]1C(=O)N1CCC[C@H]1C(=O)N[C@@H](Cc1ccc(O)cc1)C(=O)N[C@@H](CCCNC(=N)N)C(=O)N[C@@H](CCCNC(N)=O)C(=O)N2` [Ex. 125] (cyclo(YR[Cit]CRG[dP][N(3-imidazol-1-ylpropyl)Gly]R[2Nal]CY[Cit]K[dP]P); disulfide 4-11) are 330 nM, 0% and more than 100000 nM.
On to `N=C(N)NCCC[C@@H]1NC(=O)[C@@H]2CSSC[C@H](NC(=O)[C@H](Cc3ccc(O)cc3)NC(=O)[C@H](CCCNC(=N)N)NC(=O)[C@H](CCCNC(=N)N)NC(=O)[C@H]3CCCN3C(=O)CNC1=O)C(=O)N[C@@H](CCCNC(N)=O)C(=O)N[C@@H](Cc1ccc(O)cc1)C(=O)N[C@@H](CCCCN)C(=O)N1CCC[C@@H]1C(=O)N1CCC[C@H]1C(=O)N[C@@H](Cc1ccc(O)cc1)C(=O)N[C@@H](CCCNC(=N)N)C(=O)N[C@@H](CCCNC(N)=O)C(=O)N2` [Ex. 113] (cyclo(YR[Cit]CRG[dP]RRYC[Cit]YK[dP]P); disulfide 4-11), for which the IC50 at CXCR4 came to 0.62 nM. This compound came in with a Hemolysis at 100 μM in data set [1] of 0%. In the data set “in vitro”, this compound gave a 50% growth inhibitory concentration (GI50) at 48 h of 45000 nM.
On the same counts, the results for `N=C(N)NCCC[C@@H]1NC(=O)[C@@H]2CSSC[C@H](NC(=O)[C@H](Cc3ccc4ccccc4c3)NC(=O)[C@H](CCCNC(=N)N)NC(=O)[C@H](CCCNC(=N)N)NC(=O)[C@H]3CCCN3C(=O)CNC1=O)C(=O)N[C@@H](Cc1ccc(O)cc1)C(=O)N[C@@H](CO)C(=O)N[C@@H](CCCCN)C(=O)N1CCC[C@@H]1C(=O)N1CCC[C@H]1C(=O)N[C@@H](Cc1ccc(O)cc1)C(=O)N[C@@H](CCCNC(=N)N)C(=O)N[C@@H](CCCNC(N)=O)C(=O)N2` [Ex. 81] (cyclo(YR[Cit]CRG[dP]RR[2Nal]CYSK[dP]P); disulfide 4-11) are 4.9 nM, 0% and 45000 nM.
Taken in the same sequence, the figures for `CN1CCN(CCCN2CC(=O)N[C@@H](Cc3ccc4ccccc4c3)C(=O)N[C@H]3CSSC[C@H](NC(=O)[C@H](CCCNC(N)=O)NC(=O)[C@H](CCCNC(=N)N)NC(=O)[C@H](Cc4ccc(O)cc4)NC(=O)[C@@H]4CCCN4C(=O)[C@H]4CCCN4C(=O)[C@H](CCCCN)NC(=O)[C@H](CCCNC(N)=O)NC(=O)[C@H](Cc4ccc(O)cc4)NC3=O)C(=O)N[C@@H](CCCNC(=N)N)C(=O)NCC(=O)N3CCC[C@@H]3C(=O)N[C@@H](CCCNC(=N)N)C2=O)CC1` [Ex. 126] (cyclo(YR[Cit]CRG[dP]R[X2][2Nal]CY[Cit]K[dP]P); disulfide 4-11) were 19.5 nM, 0% and 85000 nM.
Taken in the same sequence, the figures for `N=C(N)NCCC[C@@H]1NC(=O)[C@@H]2CSSC[C@H](NC(=O)[C@H](Cc3c[nH]c4ccccc34)NC(=O)[C@H](CCCNC(=N)N)NC(=O)[C@H](CCN)NC(=O)[C@H]3CCCN3C(=O)CNC1=O)C(=O)N[C@@H](Cc1ccc(O)cc1)C(=O)N[C@@H](CCC(N)=O)C(=O)N[C@@H](CCCCN)C(=O)N1CCC[C@@H]1C(=O)N1CCC[C@H]1C(=O)N[C@@H](Cc1ccc(O)cc1)C(=O)N[C@@H](CCCNC(=N)N)C(=O)N[C@@H](CCCNC(N)=O)C(=O)N2` [Ex. 109] (cyclo(YR[Cit]CRG[dP][Dab]RWCYQK[dP]P); disulfide 4-11) were 3 nM, 0% and 65000 nM.
Turning to `N=C(N)NCCC[C@@H]1NC(=O)[C@@H]2CSSC[C@H](NC(=O)[C@H](Cc3ccc4ccccc4c3)NC(=O)[C@H](CCCNC(=N)N)NC(=O)[C@H](CCCNC(=N)N)NC(=O)[C@H]3CCCN3C(=O)CNC1=O)C(=O)N[C@@H](Cc1ccc(O)cc1)C(=O)N[C@@H](CCC(N)=O)C(=O)N[C@@H](CCCCN)C(=O)N1CCC[C@@H]1C(=O)N1CCC[C@H]1C(=O)N[C@@H](Cc1ccc(O)cc1)C(=O)N[C@@H](CCCNC(=N)N)C(=O)N[C@@H](CO)C(=O)N2` [Ex. 96] (cyclo(YRSCRG[dP]RR[2Nal]CYQK[dP]P); disulfide 4-11), at CXCR4, the IC50 worked out at 3 nM. In data set [1], this compound showed a Hemolysis at 100 μM of 1%. The compound further came in with a GI50 at 48 h in the data set “in vitro” of 69000 nM.
On the same counts, the results for `N=C(N)NCCC[C@@H]1NC(=O)[C@@H]2CSSC[C@H](NC(=O)[C@H](Cc3ccc4ccccc4c3)NC(=O)[C@H](CCCNC(=N)N)NC(=O)[C@H](CCCNC(=N)N)NC(=O)[C@H]3CCCN3C(=O)CNC1=O)C(=O)N[C@@H](Cc1ccc(O)cc1)C(=O)N[C@@H](CCC(N)=O)C(=O)N[C@@H](CCCCN)C(=O)N1CCC[C@@H]1C(=O)N1CCC[C@H]1C(=O)N[C@@H](Cc1c[nH]cn1)C(=O)N[C@@H](CCCNC(=N)N)C(=O)N[C@@H](CCCNC(N)=O)C(=O)N2` [Ex. 64] (cyclo(HR[Cit]CRG[dP]RR[2Nal]CYQK[dP]P); disulfide 4-11) are 3.3 nM, 0.3% and 66000 nM.
On to `N=C(N)NCCC[C@@H]1NC(=O)[C@@H]2CSSC[C@H](NC(=O)[C@H](Cc3ccc4ccccc4c3)NC(=O)[C@H](CCCNC(=N)N)NC(=O)[C@H](CCCNC(=N)N)NC(=O)[C@H]3CCCN3C(=O)CNC1=O)C(=O)N[C@@H](Cc1ccc(O)cc1)C(=O)N[C@@H](CCCNC(N)=O)C(=O)N[C@@H](CCC(=O)O)C(=O)N1CCC[C@@H]1C(=O)N1CCC[C@H]1C(=O)N[C@@H](Cc1ccc(O)cc1)C(=O)N[C@@H](CCCNC(=N)N)C(=O)N[C@@H](CCCNC(N)=O)C(=O)N2` [Ex. 103] (cyclo(YR[Cit]CRG[dP]RR[2Nal]CY[Cit]E[dP]P); disulfide 4-11), for which the IC50 on CXCR4 worked out at 18.3 nM. The same compound gave a Hemolysis at 100 μM in data set [1] of 0.2%. This compound had a GI50 at 48 h in “in vitro” of 42000 nM.
Take `N=C(N)NCCC[C@@H]1NC(=O)[C@@H]2CSSC[C@H](NC(=O)[C@H](Cc3ccc4ccccc4c3)NC(=O)[C@H](CCCNC(=N)N)NC(=O)[C@H](CCCNC(=N)N)NC(=O)[C@H]3CCCN3C(=O)CNC1=O)C(=O)N[C@@H](Cc1ccc(O)cc1)C(=O)N[C@@H](CCC(N)=O)C(=O)N[C@@H](CCCCN)C(=O)N1CCC[C@@H]1C(=O)N1CCC[C@H]1C(=O)N[C@@H](CCC(N)=O)C(=O)N[C@@H](CCCNC(=N)N)C(=O)N[C@@H](CCCNC(N)=O)C(=O)N2` [Ex. 62] (cyclo(QR[Cit]CRG[dP]RR[2Nal]CYQK[dP]P); disulfide 4-11): on CXCR4, the IC50 is 1.8 nM. Besides, the Hemolysis at 100 μM in data set [1] came to 0.1%. Also, it took 65000 nM to inhibit growth in “in vitro” by half (GI50 at 48 h).
Taken in the same sequence, the figures for `N=C(N)NCCC[C@@H]1NC(=O)[C@@H]2CSSC[C@H](NC(=O)[C@H](Cc3ccc4ccccc4c3)NC(=O)[C@H](CCCNC(=N)N)NC(=O)[C@H](CCCNC(=N)N)NC(=O)[C@H]3CCCN3C(=O)CNC1=O)C(=O)N[C@@H](Cc1ccc(O)cc1)C(=O)N[C@@H](CC(N)=O)C(=O)N[C@@H](CCCCN)C(=O)N1CCC[C@@H]1C(=O)N1CCC[C@H]1C(=O)N[C@@H](Cc1ccc(O)cc1)C(=O)N[C@@H](CCCNC(=N)N)C(=O)N[C@@H](CCCNC(N)=O)C(=O)N2` [Ex. 77] (cyclo(YR[Cit]CRG[dP]RR[2Nal]CYNK[dP]P); disulfide 4-11) were 7 nM, 0.2% and more than 100000 nM.
